ChEMBL document CHEMBL4411303, “Synthesis of tetrazole derivatives bearing pyrrolidine scaffold and evaluation of their antifungal activity against Candida albicans” (Eur J Med Chem, 2019)
In brackets after ≈: the same amount, converted by molar mass. Activity calls are given as the source filed them. No cut-off for these calls is given here.

Assays:
[1] = system: Candida albicans; experiment: Antifungal activity against Candida albicans ATCC 90028 assessed as planktonic growth inhibition at 19.88 uM after 48 hrs by M27-A3 protocol based method relative to control; type: functional; conditions: ATCC 90028, 48 h, read-out: GI
[2] = system: Candida albicans; experiment: Antifungal activity against Candida albicans ATCC 90028 assessed as planktonic growth inhibition at 9.94 uM after 48 hrs by M27-A3 protocol based method relative to control; type: functional; conditions: ATCC 90028, 48 h, read-out: GI
[3] = system: Candida albicans; experiment: Antifungal activity against Candida albicans ATCC 90028 assessed as planktonic growth inhibition at 0.08 uM after 48 hrs by M27-A3 protocol based method relative to control; type: functional; conditions: ATCC 90028, 48 h, read-out: GI
[4] = system: Candida albicans; experiment: Antifungal activity against Candida albicans ATCC 90028 assessed as planktonic growth inhibition at 1.24 uM after 48 hrs by M27-A3 protocol based method relative to control; type: functional; conditions: ATCC 90028, 48 h, read-out: GI
[5] = system: Candida albicans; experiment: Antifungal activity against Candida albicans ATCC 90028 assessed as planktonic growth inhibition at 2.49 uM after 48 hrs by M27-A3 protocol based method relative to control; type: functional; conditions: ATCC 90028, 48 h, read-out: GI
[6] = system: Candida albicans; experiment: Antifungal activity against Candida albicans ATCC 90028 assessed as planktonic growth inhibition at 0.16 uM after 48 hrs by M27-A3 protocol based method relative to control; type: functional; conditions: ATCC 90028, 48 h, read-out: GI
[7] = Selectivity index, ratio of CC50 for African green monkey Vero cells to IC50 for Candida albicans ATCC 90028; type: toxicity; conditions: read-out: Ratio CC50/IC50
[8] = system: Candida albicans; experiment: Antibiofilm activity against Candida albicans ATCC 90028 assessed as inhibition of biofilm formation […] after 24 hrs by XTT assay relative to control; type: functional, organism-based; conditions: ATCC 90028, 24 h
[9] = system: Candida albicans; experiment: Antifungal activity against Candida albicans ATCC 90028 assessed as planktonic growth inhibition at 0.31 uM after 48 hrs by M27-A3 protocol based method relative to control; type: functional; conditions: ATCC 90028, 48 h, read-out: GI
[10] = system: Candida albicans; experiment: Antifungal activity against Candida albicans ATCC 90028 assessed as planktonic growth inhibition at 4.97 uM after 48 hrs by M27-A3 protocol based method relative to control; type: functional; conditions: ATCC 90028, 48 h, read-out: GI
[11] = system: Candida albicans; experiment: Induction of Candida albicans ATCC 90028 internalization in mouse RAW264.7 cells assessed as reduction in fungus-induced cell damage by measuring live and early apoptotic cells at 39.77 uM after 2 hrs acridine orange/ethidium bromide staining based confocal scanning microscopic analysis; type: functional, organism-based
[12] = system: Candida albicans; experiment: Antifungal activity against Candida albicans ATCC 90028 assessed as planktonic growth inhibition at 0.62 uM after 48 hrs by M27-A3 protocol based method relative to control; type: functional; conditions: ATCC 90028, 48 h, read-out: GI
[13] = system: Candida albicans; experiment: Fungicidal activity against Candida albicans ATCC 90028 assessed as log reduction in fungal load incubated for 48 hrs followed by replating on sabouraud dextrose agar plate and measured after 48 hrs; type: functional
[14] = system: Vero; experiment: Cytotoxicity against African green monkey Vero cells assessed as reduction in cell viability at 318.16 uM after 18 hrs by XTT assay relative to control; type: cell-based; conditions: chlorocebus sabaeus
[15] = system: Candida albicans; experiment: Antifungal activity against Candida albicans ATCC 90028 assessed as planktonic growth inhibition at 39.77 uM after 48 hrs by M27-A3 protocol based method relative to control; type: functional; conditions: ATCC 90028, 48 h, read-out: GI
[16] = system: Vero; experiment: Cytotoxicity against African green monkey Vero cells assessed as reduction in cell viability at 383.2 uM after 18 hrs by XTT assay relative to control; type: cell-based; conditions: chlorocebus sabaeus
[17] = Toxicity in Galleria mellonella larvae assessed as survival rate at 47.9 uM measured after 18 hrs (reference value: 100%)
[18] = Toxicity in Galleria mellonella larvae assessed as cocoon formation at 47.9 uM measured after 48 hrs (reference value: 100 +/- 0%)
[19] = system: Candida albicans; experiment: Induction of reactive oxygen species generation in Candida albicans ATCC 90028 assessed as ROS level at 47.9 uM after 18 hrs by DCFDA probe based flow cytometry (reference value: 0.3%); type: functional
[20] = Toxicity in Galleria mellonella larvae assessed as movement melanization at 47.9 uM measured after 128 hrs (reference value: 0%)
[21] = Toxicity in Galleria mellonella larvae assessed as survival rate at 47.9 uM measured after 48 hrs (reference value: 100%)
[22] = Toxicity in Galleria mellonella larvae assessed as cocoon formation at 47.9 uM measured after 48 hrs (reference value: 85 +/- 5%)
[23] = Toxicity in Galleria mellonella larvae assessed as survival rate at 47.9 uM measured after 120 hrs (reference value: 100%)
[24] = system: Candida albicans; experiment: Antifungal activity against Candida albicans ATCC 90028 assessed as reduction in cell growth after 48 to 72 hrs by M27-A3 protocol based method; type: functional
[25] = system: Candida albicans; experiment: Antifungal activity against Candida albicans ATCC 90028 assessed as planktonic growth inhibition at 3 uM after 48 hrs by M27-A3 protocol based method relative to control; type: functional; conditions: ATCC 90028, 48 h, read-out: GI
[26] = system: Candida albicans; experiment: Antifungal activity against Candida albicans ATCC 90028 assessed as planktonic growth inhibition at 12 uM after 48 hrs by M27-A3 protocol based method relative to control; type: functional; conditions: ATCC 90028, 48 h, read-out: GI
[27] = Toxicity in Galleria mellonella larvae assessed as cocoon formation at 47.9 uM measured after 18 hrs (reference value: 60 +/- 20%)
[28] = system: Candida albicans; experiment: Antifungal activity against Candida albicans ATCC 90028 assessed as planktonic growth inhibition at 0.2 uM after 48 hrs by M27-A3 protocol based method relative to control; type: functional; conditions: ATCC 90028, 48 h, read-out: GI
[29] = system: Candida albicans; experiment: Antifungal activity against Candida albicans ATCC 90028 assessed as planktonic growth inhibition at 0.4 uM after 48 hrs by M27-A3 protocol based method relative to control; type: functional; conditions: ATCC 90028, 48 h, read-out: GI
[30] = Toxicity in Galleria mellonella larvae assessed as movement melanization at 47.9 uM measured after 48 hrs (reference value: 0%)
[31] = system: Candida albicans; experiment: Antifungal activity against Candida albicans ATCC 90028 assessed as planktonic growth inhibition at 6 uM after 48 hrs by M27-A3 protocol based method relative to control; type: functional; conditions: ATCC 90028, 48 h, read-out: GI
[32] = Toxicity in Galleria mellonella larvae assessed as movement melanization at 47.9 uM measured after 18 hrs (reference value: 0%)
[33] = system: Candida albicans; experiment: Antifungal activity against Candida albicans ATCC 90028 assessed as planktonic growth inhibition at 0.7 uM after 48 hrs by M27-A3 protocol based method relative to control; type: functional; conditions: ATCC 90028, 48 h, read-out: GI
[34] = system: Candida albicans; experiment: Antifungal activity against Candida albicans ATCC 90028 assessed as planktonic growth inhibition at 0.09 uM after 48 hrs by M27-A3 protocol based method relative to control; type: functional; conditions: ATCC 90028, 48 h, read-out: GI
[35] = system: Candida albicans; experiment: Induction of Candida albicans ATCC 90028 internalization in mouse RAW264.7 cells assessed as reduction in fungus-induced cell damage by measuring live and early apoptotic cells at 47.9 uM after 2 hrs acridine orange/ethidium bromide staining based confocal scanning microscopic analysis; type: functional, organism-based
[36] = system: Candida albicans; experiment: Antifungal activity against Candida albicans ATCC 90028 assessed as planktonic growth inhibition at 1.5 uM after 48 hrs by M27-A3 protocol based method relative to control; type: functional; conditions: ATCC 90028, 48 h, read-out: GI
[37] = system: Candida albicans; experiment: Inhibition of Candida albicans ATCC 90028 cell adhesion to human TR146 cells at reduction in cell adherence at 47.9 uM relative to control; type: functional; conditions: ATCC 90028, TR146
[38] = system: Candida albicans; experiment: Antifungal activity against Candida albicans ATCC 90028 assessed as reduction in cell growth after 48 to 72 hrs in presence of ergosterol by M27-A3 protocol based method; type: functional
[39] = system: Candida albicans; experiment: Antifungal activity against Candida albicans ATCC 90028 assessed as planktonic growth inhibition at 23.9 uM after 48 hrs by M27-A3 protocol based method relative to control; type: functional; conditions: ATCC 90028, 48 h, read-out: GI
[40] = system: Candida albicans; experiment: Antifungal activity against Candida albicans ATCC 90028 assessed as planktonic growth inhibition at 47.9 uM after 48 hrs by M27-A3 protocol based method relative to control; type: functional; conditions: ATCC 90028, 48 h, read-out: GI

Clc1ccc(-c2nnn(CCCN3CCCC3c3ccc(Cl)cc3)n2)cc1 (stereo not drawn)
inhibition of growth at 19.88 µM [1]: 99.3%
inhibition of growth at 9.94 µM [2]: 99.3%
inhibition of growth at 0.08 µM [3]: 99.6%
inhibition of growth at 1.24 µM [4]: 99%
inhibition of growth at 2.49 µM [5]: 99.7%
inhibition of growth at 0.16 µM [6]: 99.5%
selectivity ratio [7]: 2
IC50 [8]: 79.5 µM
inhibition of growth at 0.31 µM [9]: 99.2%
inhibition of growth at 4.97 µM [10]: 99.3%
Activity [11]: Active
inhibition of growth at 0.62 µM [12]: 99.5%
log(activity) [13]: -1.4
Activity [14]: 100%
inhibition of growth at 39.77 µM [15]: 99.6%

c1ccc(-c2nnn(CCCN3CCCC3c3ccccc3)n2)cc1 (stereo not drawn)
Activity [16]: 100%
survival at 18 h, 47.9 µM [17]: 100%
Activity [18]: 93%
Activity [19]: 12 - 16%
Activity [20]: 0%
survival at 48 h, 47.9 µM [21]: 100%
Activity [22]: 77%
survival at 120 h, 47.9 µM [23]: 97%
MIC [24]: 11.9 µM (≈ 3.97 µg/mL)
inhibition of growth at 3 µM [25]: 99.3%
inhibition of growth at 12 µM [26]: 99.4%
Activity [27]: 67%
inhibition of growth at 0.2 µM [28]: 99.3%
inhibition of growth at 0.4 µM [29]: 99.3%
Activity [30]: 0%
selectivity ratio [7]: 2
inhibition of growth at 6 µM [31]: 99.3%
IC50 [8]: 23.9 µM
Activity [32]: 0%
inhibition of growth at 0.7 µM [33]: 99.2%
inhibition of growth at 0.09 µM [34]: 99.2%
Activity [35]: Active
log(activity) [13]: -0.4
inhibition of growth at 1.5 µM [36]: 99.3%
inhibition at 47.9 µM [37]: > 95%
MIC [38]: 23.9 µM
inhibition of growth at 23.9 µM [39]: 99.3%
inhibition of growth at 47.9 µM [40]: 99.2%
